# Assay results from patent US11116739B2, “Fixed dose combinations and formulations comprising ETC1002 and one or more statins and methods of treating or reducing cardiovascular disease” (Esperion Therapeutics, Inc., priority 2015, dated 2021).
# Like-named read-outs stand apart in the source and are kept apart here.
# Tests used:
# [1] = clinical pharmacokinetics of ETC-1002; assay type: in vivo, human
# Procedure: (§1) The entire clinical program for ETC-1002 (conducted between 2009 and 2015) has included approximately 1000 subjects and patients, with approximately 700 receiving ETC-1002 doses ranging from 2.5 up to 240 mg/day (multiple doses) for up to 12 weeks. There are 15 completed clinical studies (nine Phase 1 and six Phase 2), and integrated data summaries are based on the 6 completed Phase 2 studies.
# [2] = Study 1002-012: effect of steady-state ETC-1002 on single-dose PK of simvastatin, pravastatin, rosuvastatin
# Procedure: Serial PK blood samples were collected through the morning of Day −3. Starting on Day 1, all subjects received oral ETC-1002, 240 mg, once daily for 16 days. On the morning of Day 12, in addition to ETC-1002, subjects received a single dose of a statin drug, based on their cohort assignment; serial PK blood samples were collected.
# [3] = system: rodent models of dyslipidemia; assay: primary pharmacology in rodent models of dyslipidemia; assay type: in vivo
# Procedure: The primary pharmacology of ETC-1002 was evaluated in several well-characterized and predictive rodent models of dyslipidemia. In these studies, ETC-1002 lowered LDL-C and triglycerides (TGs) and increased high-density lipoprotein cholesterol (HDL-C).
# [4] = safety pharmacology studies; conditions: over the range of exposures intended for clinical studies
# mice, rats, and monkeys = assay: oral toxicology studies up to 12 months; assay type: in vivo
# Excerpt: In toxicology studies, evaluations of ETC-1002 in mice, rats, and monkeys in oral studies up to 12 months in duration have been completed. […] Routine clinical laboratory parameters will continue to be monitored carefully in clinical trials.
# [5] = pivotal 6-month rat study; conditions: both sexes, in vivo, oral, male and female rats, read-out: no-observed-adverse-effect level (NOAEL) dose
# Procedure: (§2) In the pivotal 6-month rat study, the no-observed-adverse-effect level (NOAEL) dose was 30 mg/kg/day in male and female rats and the corresponding area under the curve during 24 hours (AUC0-24) values of the sum of ETC-1002 and ESP15228 were up to 528 μg·hr/mL. In the pivotal 12-month monkey study, the NOAEL dose was 60 mg/kg/day and the corresponding AUC0-24 value of the sum of ETC-1002 and ESP15228 was up to 4478 μg·hr/mL.
# [6] = pivotal 12-month monkey study; conditions: in vivo, oral, read-out: NOAEL dose
# Procedure: as §2
# [7] = in-vitro and in-vivo genetic toxicology assays
# [8] = system: major cytochrome P450 (CYP) enzymes; assay: in vitro CYP inhibition/induction studies; assay type: in vitro ADME; conditions: at clinically relevant plasma concentrations
# major drug transporters = assay: in vitro drug transporter inhibition; assay type: in vitro ADME
# patients [9] = assay: integrated analysis of six Phase 2 studies (efficacy); assay type: in vivo, human
# Procedure: as §1
# [10] = drug interaction with metformin or Ortho-Novum 1/35; assay type: in vivo, human
# [11] = food-effect/bioequivalence study; parameters: species or system human; conditions: in vivo
# [12] = Study 1002-007: effect of ETC-1002 on the PK of atorvastatin
# Procedure: All patients started ETC-1002 at a dose of 60 mg/day, which was up-titrated every 2 weeks to 120 mg/day, then 180 mg/day, then 240 mg/day.
# QT/QTc = assay: thorough QT/QTc (TQT) study (1002-022); assay type: in vivo, human; conditions: ETC-1002 240 mg daily for 9 days
# patients [13] = assay: 6 integrated Phase 2 studies (safety, TEAEs, SAEs); assay type: in vivo, human
# Procedure: as §1
# The greatest number of patients experiencing at least 1 TEAE among ETC-1002-treated groups occurred in the ETC-1002 40-mg dose group (75.6%); this frequency was similar to the frequency of patients experiencing at least 1 TEAE in the placebo group (74.2%).
structure (smiles),measurement,setting,value
CC(C)(CCCCCC(=O)CCCCCC(C)(C)C(=O)O)C(=O)O [ESP15228],Cmax dose proportionality,"[1]; human, in vivo",increase in proportion to increasing dose
same,mean t1/2,"[1]; human, in vivo",20 to 33 h
same,Tmax,[1]; oral,7 h
same,plasma concentrations and PK parameters,"[2]; after 12th daily 240-mg dose of ETC-1002 with single dose simvastatin 20 mg, pravastatin 40 mg or rosuvastatin 10 mg",consistent with those in previous monotherapy studies
"CC(C)(CCCCCC(O)CCCCCC(C)(C)C(=O)O)C(=O)O [ETC-1002, 8-hydroxy-2,2,14,14 tetramethylpentadecanedioic acid]",LDL-C,[3],lowered
same,high-density lipoprotein cholesterol (HDL-C),[3],increased
same,triglycerides (TGs),[3],lowered
same,risks for patients identified in safety pharmacology,[4],did not identify any significant risks
same,"central nervous system, respiratory, or cardiovascular liabilities","mice, rats, and monkeys; oral, up to 12 months, mice, rats, monkeys","No significant central nervous system, respiratory, or cardiovascular liabilities have been identified"
same,target organs in repeat-dose studies,"mice, rats, and monkeys; rats and monkeys, changes reversible following cessation of treatment",liver and kidney
same,NOAEL at 6 months,[5],30 mg/kg/day
same,NOAEL at 12 months,[6],60 mg/kg/day
same,clastogenicity,[7],non-clastogenic
same,mutagenicity,[7],non-mutagenic
same,inhibition or induction of major CYP enzymes,[8],neither an inhibitor nor inducer
same,inhibition of major drug transporters,major drug transporters,does not appear to inhibit
same,"LDL-C, placebo-adjusted LS means for percent change from baseline",patients [9]; 180 mg on top of stable statin therapy,~22%
same,"LDL-C, placebo-adjusted LS means for percent change from baseline",patients [9]; ETC-1002 180 mg monotherapy,approximately 32%
same,"non-HDL-C, TC, LDL particle number and apoB",patients [9]; accompanying reduced LDL-C,corresponding reductions
same,effect on HDL-C and TGs,patients [9]; in vivo,generally neutral
same,Cmax dose proportionality,"[1]; human, in vivo",increase in proportion to increasing dose
same,Tmax,"[1]; human, in vivo, oral, read-out: Tmax",< 4 h
same,half-life,"[1]; human, in vivo, oral, read-out: mean t1/2",15 to 27 h
same,"systemic exposure, AUCtau,ss, dose proportionality","[1]; up to 120 mg daily, linear from 140 to 220 mg daily doses",slightly more than dose-proportional increase
same,drug interaction,[10]; combination of ETC-1002 and Ortho-Novum 1/35 (combined oral contraceptive),No drug interaction
same,drug interaction,[10]; combination of ETC-1002 and metformin,No drug interaction
same,food effect,[11],can be taken without regard to food
same,LDL-C lowering,[12]; ETC-1002 in combination with atorvastatin 10 mg vs atorvastatin alone,incremental LDL-C lowering beyond atorvastatin alone
same,QT interval duration,QT/QTc,does not prolong
same,change in QTc,QT/QTc,no significant change
same,effect on heart rate and PR and QRS intervals,QT/QTc,no clinically significant effect
same,deaths,"patients [13]; ETC-1002 120 mg group, Study 1002-008, Study Day 98, considered possibly related to study drug",One patient died with cause unknown
same,"frequency of TEAEs, SOC infections and infestations","patients [13]; human, in vivo",11.6-25%
same,patients experiencing at least 1 TEAE,"patients [13]; human, in vivo",75.6%
same,dose-related trends in the frequency of TEAEs,patients [13]; in vivo,there did not appear to be any dose-related trends
same,dose-related trends in the frequency of myalgia,patients [13]; in vivo,no dose-related trends
same,muscle-related SAEs,patients [13]; in vivo,no muscle-related SAEs
same,other measures of safety including laboratory results,patients [13]; in vivo,no clinically significant trends
same,reports of rhabdomyolysis,patients [13]; in vivo,no reports
same,safety profile,patients [13]; in vivo,excellent safety profile
CC(C)c1c(C(=O)Nc2ccccc2O)c(-c2ccccc2)c(-c2ccc(F)cc2)n1CC[C@@H](O)C[C@@H](O)CC(=O)O [ortho-hydroxy atorvastatin],higher exposure than atorvastatin alone,[12]; 10 mg atorvastatin plus 120 mg ETC-1002 daily vs 10 mg atorvastatin alone,approximately 60%
same,exposure versus atorvastatin alone,[12]; 10 mg atorvastatin plus ETC-1002 240 mg,higher exposure
"CCC(C)(C)C(=O)O[C@H]1C[C@@H](C)C=C2C=C[C@H](C)[C@H](CC[C@@H]3C[C@@H](O)CC(=O)O3)[C@H]21 [simvastatin, reference compound]",exposure (AUC0-inf) increased,"[2]; single dose simvastatin 20 mg with steady-state ETC-1002 240 mg vs simvastatin alone, healthy subjects",29%
